The values below come from patent publication US20130012491A1, “PYRIMIDINE DERIVATIVES FOR USE AS SPHINGOSINE 1-PHOSPHATE 1 (S1P1) RECEPTOR AGONISTS” (GLAXO GROUP LIMITED, priority 2010, published 2013).

SMILES strings stand for the structures. Where a name gives a salt, the structure may show the parent alone.

In the first data set the test system is circulating lymphocytes.
Experiment: not given
As to conditions: animals and man; cited from earlier work.
For the compound `CCCCCCCCc1ccc(CCC(N)(CO)CO)cc1` [FTY720], the “effect on circulating lymphocytes” value is “reduce circulating lymphocytes”.

For a further data set, the system named is animal models of immune disorders.
Experiment: not given
The note with it: cited from earlier work.
Turning to `CCCCCCCCc1ccc(CCC(N)(CO)CO)cc1` [FTY720], the disease modulating activity entry was “disease modulating activity”.

Another data set has as its system S1P3 knock-out animals.
Experiment: not given
The note with it: unlike wild type mice; cited from earlier work.
Turning to `CCCCCCCCc1ccc(CCC(N)(CO)CO)cc1` [FTY720], the bradycardia entry is on record as “do not demonstrate bradycardia”.

System in a further data set: not given
Experiment: not given
As to conditions: clinical studies, first 24 hours of treatment; cited from earlier work.
In the case of `CCCCCCCCc1ccc(CCC(N)(CO)CO)cc1` [FTY720], the bradycardia entry is “results in bradycardia”.

In a further data set the target is T1, S1P3 (human Endothelial Differentiation G-protein Coupled Receptor 3 (EDG3)) (Homo sapiens, UniProt Q99500).
T1 construct: expressed in transfected cells; host or cells: GeneBLAzer EDG3-Ga15-NFAT-bla HEK 293T cells
T1 sequence (Q99500 whole entry): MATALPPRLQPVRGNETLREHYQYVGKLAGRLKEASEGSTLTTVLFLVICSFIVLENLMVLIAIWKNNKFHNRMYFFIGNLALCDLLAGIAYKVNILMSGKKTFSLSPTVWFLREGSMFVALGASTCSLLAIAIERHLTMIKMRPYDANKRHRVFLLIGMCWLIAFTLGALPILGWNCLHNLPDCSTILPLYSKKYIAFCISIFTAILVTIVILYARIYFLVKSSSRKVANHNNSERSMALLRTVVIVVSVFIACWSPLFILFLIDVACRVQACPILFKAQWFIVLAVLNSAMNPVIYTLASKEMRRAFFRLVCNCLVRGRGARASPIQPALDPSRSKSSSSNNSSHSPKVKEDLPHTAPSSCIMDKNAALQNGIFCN
In words: S1P3 GeneBlazer assay. It is filed as cell-based. As to conditions: agonist, EDG3-Ga15-NFAT-bla HEK 293T cells, beta-lactamase FRET readout. The procedure:
GeneBLAzer EDG3-Ga15-NFAT-bla HEK 293T cells (contain the human Endothelial Differentiation G-protein Coupled Receptor 3 (EDG3) and a beta-lactamase reporter gene under control of a […] response element and a promiscuous G Protein, Ga15, stably integrated into the GeneBLAzer Ga15-NFAT-bla HEK 293T cell line) were harvested from growth medium and suspended in assay medium (90% DMEM, 10% Charcoal-stripped FBS, 0.1 mM NEAA, 25 mM HEPES (pH 7.3), 100 U/ml penicillin, 100 μg/ml streptomycin) at a density of ˜200,000 cells/ml.
All test compounds were dissolved in DMSO at a concentration of 10 mM and were prepared in 100% DMSO to provide 10 point dose response curves. Test compounds prepared by Bravo (Velocity11) were added to wells in columns 2-11 and 13-22; DMSO was added to wells in columns 12 and 23 as unstimulated controls and assay medium was added to wells in columns 1 and 24 as cell-free controls. An S1P3 agonist was added to wells in row 2, columns 2-11 as stimulated controls and test compounds were added to wells in row 2, columns 13-22 and rows 3-15, columns 2-11/13-22 (row 1 and 16 were empty and not used). Compounds in solution were added to the assay plate (Greiner 781090) using an Echo (Labcyte) dose-response program (50 nl/well). The unstimulated and cell-free controls were loaded with 50 nl/well pure DMSO to ensure that the DMSO concentration was constant across the plate for all assays.
50 μl of the cell suspension was added to each well in columns 2-23 of the plate (˜10,000 cells per well). 50 μl of assay medium was added to each well in the cell-free controls (columns 1 and 24). The cells were incubated overnight at 37° C./5% CO2.
10 μl of 6× substrate mixture (LiveBLAzer™-FRET B/G substrate (CCF4-AM) Cat # K1096 from Invitrogen, Inc.) was added to each well using Bravo and the plates incubated at room temperature for 2 h in the dark. The plate was finally read on EnVision using one excitation channel (409 nm) and two emission channels (460 nm and 530 nm).
The blue/green emission ratio (460 nm/530 nm) was calculated for each well, by dividing the background-subtracted Blue emission values by the background-subtracted Green emission values. The dose response curve is based on sigmoidal dose-response model. All ratio data was normalized based upon the maximum emission ratio of positive control and minimum emission ratio of negative control (DMSO) on each plate. The intrinsic activity (IA) of each compound would be the normalized percentage of its maximum response after curve fitting.
For orientation: EC50 means the concentration giving half of the maximal effect. High values mean a need for much substance, low ones an effect from little substance. For the compound `CCc1c(CNCCC(=O)O)cccc1-c1cnc(-c2ccc(OC(C)C)c(C(F)(F)F)c2)nc1` [Example 10, N-[(2-ethyl-3-{2-[4-[(1-methylethyl)oxy]-3-(trifluoromethyl)phenyl]-5-pyrimidinyl}phenyl)methyl]-b-alanine], the EC50 is at most 2 µM.

With `CCc1c(CN2CC(C(=O)O)C2)cccc1-c1cnc(-c2ccc(OC(C)C)c(C(F)(F)F)c2)nc1` [Example 11, 1-[(2-ethyl-3-{2-[4-[(1-methylethyl)oxy]-3-(trifluoromethyl)phenyl]-5-pyrimidinyl}phenyl)methyl]-3-azetidinecarboxylic acid], the EC50 is at most 10 µM.

For `CCc1c(CN2CCC(C(=O)O)CC2)cccc1-c1cnc(-c2ccc(OC(C)C)c(C(F)(F)F)c2)nc1` [Example 13, 1-[(2-ethyl-3-{2-[4-[(1-methylethyl)oxy]-3-(trifluoromethyl)phenyl]-5-pyrimidinyl}phenyl)methyl]-4-piperidinecarboxylic acid], the 50% effective concentration (EC50) is at most 10 µM.

The compound `CCc1c(-c2cnc(-c3ccc(OC(C)C)c(Cl)c3)nc2)cccc1C1CCN(CCC(=O)O)CC1` [Example 15, 3-{4-[3-(2-{3-chloro-4-[(1-methylethyl)oxy]phenyl}-5-pyrimidinyl)-2-ethylphenyl]-1-piperidinyl}propanoic acid trifluoroacetate] showed an EC50 of at most 10 µM.

With `CCc1c(CCN(C)CC(=O)O)cccc1-c1cnc(-c2ccc(OC(C)C)c(Cl)c2)nc1` [Example 27, N-{2-[3-(2-{3-chloro-4-[(1-methylethyl)oxy]phenyl}-5-pyrimidinyl)-2-ethylphenyl]ethyl}-N-methylglycine], the EC50 is at most 10 µM.

Compound `CCc1c(CCN2CC(C(=O)O)C2)cccc1-c1cnc(-c2ccc(OC(C)C)c(Cl)c2)nc1` [Example 28, N-{2-[3-(2-{3-chloro-4-[(1-methylethyl)oxy]phenyl}-5-pyrimidinyl)-2-ethylphenyl]ethyl}-3-azetidinecarboxylic acid] showed a half-maximal effective concentration (EC50) of at most 2 µM.

Compound `CCc1c(CCN2CCC(C(=O)O)C2)cccc1-c1cnc(-c2ccc(OC(C)C)c(Cl)c2)nc1` (stereo not shown) [Example 29, 1-{2-[3-(2-{3-chloro-4-[(1-methylethyl)oxy]phenyl}-5-pyrimidinyl)-2-ethylphenyl]ethyl}-3-pyrrolidinecarboxylic acid] had a concentration for a half-maximal effect (EC50) of at most 2 µM.

On to `CCc1c(CCN2CC[C@H](C(=O)O)C2)cccc1-c1cnc(-c2ccc(OC(C)C)c(Cl)c2)nc1` [Example 30, (3S)-1-{2-[3-(2-{3-chloro-4-[(1-methylethyl)oxy]phenyl}-5-pyrimidinyl)-2-ethylphenyl]ethyl}-3-pyrrolidinecarboxylic acid], for which the EC50 is at most 2 µM.

Take `CCc1c(CCN2CCCC(C(=O)O)C2)cccc1-c1cnc(-c2ccc(OC(C)C)c(Cl)c2)nc1` (stereo not shown) [Example 31, 1-{2-[3-(2-{3-chloro-4-[(1-methylethyl)oxy]phenyl}-5-pyrimidinyl)-2-ethylphenyl]ethyl}-3-piperidinecarboxylic acid]: the EC50 was at most 10 µM.

Regarding `CCc1c(CCN2CCC[C@H](C(=O)O)C2)cccc1-c1cnc(-c2ccc(OC(C)C)c(Cl)c2)nc1` [Example 32, (3S)-1-{2-[3-(2-{3-chloro-4-[(1-methylethyl)oxy]phenyl}-5-pyrimidinyl)-2-ethylphenyl]ethyl}-3-piperidinecarboxylic acid], the EC50 is at most 10 µM.

In the case of `CCc1c(CCN2CCC(C(=O)O)CC2)cccc1-c1cnc(-c2ccc(OC(C)C)c(Cl)c2)nc1` [Example 33, 1-{2-[3-(2-{3-chloro-4-[(1-methylethyl)oxy]phenyl}-5-pyrimidinyl)-2-ethylphenyl]ethyl}-4-piperidinecarboxylic acid], the EC50 is at most 2 µM.

With `CCc1c(CCN(C)CC(=O)O)cccc1-c1cnc(-c2ccc(CC(C)C)c(C#N)c2)nc1` [Example 34, N-[2-(3-{2-[3-cyano-4-(2-methylpropyl)phenyl]-5-pyrimidinyl}-2-ethylphenyl)ethyl]-N-methylglycine trifluoroacetate], the EC50 was at most 10 µM.

Consider `CCc1c(CCN(C)CCC(=O)O)cccc1-c1cnc(-c2ccc(CC(C)C)c(C#N)c2)nc1` [Example 35, N-[2-(3-{2-[3-cyano-4-(2-methylpropyl)phenyl]-5-pyrimidinyl}-2-ethylphenyl)ethyl]-N-methyl-b-alanine], for which the EC50 is at most 10 µM.

In turn, `CCc1c(CCN2CC(C(=O)O)C2)cccc1-c1cnc(-c2ccc(CC(C)C)c(C#N)c2)nc1` [Example 36, 1-[2-(3-{2-{3-cyano-4-(2-methylpropyl)phenyl}-5-pyrimidinyl}-2-ethylphenyl)ethyl]-3-azetidinecarboxylic acid] had an EC50 of at most 10 µM.

With `CCc1c(CCN2CCC(C(=O)O)C2)cccc1-c1cnc(-c2ccc(CC(C)C)c(C#N)c2)nc1` (stereo not shown) [Example 37, 1-[2-(3-{2-[3-cyano-4-(2-methylpropyl)phenyl]-5-pyrimidinyl}-2-ethylphenyl)ethyl]-3-pyrrolidinecarboxylic acid], the EC50 was at most 10 µM.

Take `CCc1c(CCN2CCCC(C(=O)O)C2)cccc1-c1cnc(-c2ccc(CC(C)C)c(C#N)c2)nc1` (stereo not shown) [Example 38, 1-[2-(3-{2-[3-cyano-4-(2-methylpropyl)phenyl]-5-pyrimidinyl}-2-ethylphenyl)ethyl]-3-piperidinecarboxylic acid]: the EC50 is at most 10 µM.

In turn, `CCc1c(CCN2CCC[C@H](C(=O)O)C2)cccc1-c1cnc(-c2ccc(CC(C)C)c(C#N)c2)nc1` [Example 39, (3S)-1-[2-(3-{2-[3-cyano-4-(2-methylpropyl)phenyl]-5-pyrimidinyl}-2-ethylphenyl)ethyl]-3-piperidinecarboxylic acid] gave an EC50 of at most 10 µM.

In the case of `CCc1c(CCN2CCC(C(=O)O)CC2)cccc1-c1cnc(-c2ccc(CC(C)C)c(C#N)c2)nc1` [Example 40, 1-[2-(3-{2-[3-cyano-4-(2-methylpropyl)phenyl]-5-pyrimidinyl}-2-ethylphenyl)ethyl]-4-piperidinecarboxylic acid], the 50% effective concentration (EC50) is at most 2 µM.
